Columns and labels:
SLE-PBMC = experiment: IFN-gamma release by pathogenic lupus cells (SLE-PBMC); format: cell-based, human; conditions: control, non-specific inflammatory stimulus
Description: FIG. 32 is a bar graph depicting the amount of interferon (IFN)—gamma released by pathogenic lupus cells in the presence or absence of combinations of (1) activated Treg cells; (2) ruxolitinib; and/or (3) camptothecin. Rux=ruxolitinib. SLE-PBMC=peripheral blood mononuclear cells derived from subjects with systemic lupus erythematosus. D6=Day 6.

[1] = tested on: graft versus host disease (GVHD); conditions: mouse, in vivo
Protocol: FIG. 33 depicts a schematic for treatment of a xenogeneic mouse graft versus host disease (GVHD) model with a ruxolitinib and activated Treg cells regimen. PBMC=peripheral blood mononuclear cells.
A xenogeneic mouse graft versus host disease (GVHD) model was treated with a ruxolitinib and activated CB Treg cells regimen, as depicted in FIG. 33. NSG mice underwent sublethal irradiation on day −1 followed by injection of 1×10^7 donor peripheral blood (PB) mononuclear cells (MNCs) on day 0. Oral ruxolitinib at 1 mg daily was fed continuously to the mice in the presence or absence of 1×10^7 CB Treg cells, tagged with CellTrace™ Violet dye (ThermoFisher), administered on days +4, +7, +11, +18. Mice were followed every other day for weight, GVHD score and survival. Serial blood draws were performed to analyze for cell compartment and cytokine assays.

SMILES | IFNγ secretion from CB Treg cells (SLE-PBMC) | CB Treg persistence [1]
CC[C@@]1(O)C(=O)OCc2c1cc1n(c2=O)Cc2cc3ccccc3nc2-1 [Camptothecin] | does not increase | 
N#CC[C@H](C1CCCC1)n1cc(-c2ncnc3[nH]ccc23)cn1 [ruxolitinib] |  | improved CB Treg persistence

— US12692478B2, “Populations of enriched regulatory T cells and methods for producing same” (Cellenkos Inc., priority 2021, dated 2026)
